Data reported in patent publication US20020028836A1, “Potassium channel openers” (priority 2000, published 2002).
Read-outs that look alike come from different tables or passages of the source.

Tests used:
[1] = tested on: tissue strips obtained from Landrace pig bladders; assay: Functional potassium channel opening activity in isolated bladder strips (field-stimulated twitch); conditions: for Index: ED50 for P1075 divided by ED50 for the test agonist in a given tissue, averaged; for EC50: amount of agent necessary to cause 50% of the agent's maximal response, read-out: ED50 (the source's name)
Outline: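 Mucosa-free female Landrace pig bladder strips in Krebs Ringer bicarbonate (pH 7.4, 37° C., 0.004 mM propranolol), 1.0 g preload, field-stimulated at 0.05 Hz, 0.5 ms, 20 V for twitch. Cumulative concentration-response curves; maximal efficacy as % of P1075, ED50 fitted, potency index = P1075 ED50/test ED50 per tissue, averaged.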

[2] = tested on: primary cultured guinea-pig urinary bladder (GPB) cells; assay: Membrane hyperpolarization (MHP) assay, DiBAC(4)3 / FLIPR; assay type: cell-based; conditions: for EC50: concentration that elicits 50% of the maximal response for the test sample
Outline: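 Primary smooth-muscle cells from male guinea-pig bladder, grown to confluence, loaded 30 min at 37° C with 5 μM DiBAC(4)3 in HEPES buffer pH 7.4. Fluorescence drop on FLIPR followed 25 min after compound; steady-state hyperpolarization normalized to 10 μM P1075 (100%), EC50 from four-parameter fit of five concentrations.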

SMILES | melting point [°C] | further results
CC(Cl)(Cl)C(NC(=O)c1cc(Cl)cc(Cl)c1)NC(=NS(=O)(=O)C(F)(F)F)Nc1cccnc1 (stereo not drawn) [Example 190, 3,5-dichloro-N-{2,2-dichloro-1-[((3-pyridinylamino){[(trifluoromethyl)sulfonyl]imino}methyl)amino]propyl}benzamide] | 213 to 215 | –
CC(C)(C)C(NC(=O)c1ccc(Cl)cc1)NC(Nc1cccnc1)=C(C#N)C#N (stereo not drawn) [Example 152, 4-chloro-N-(1-{[2,2-dicyano-1-(3-pyridinylamino)vinyl]amino}-2,2-dimethylpropyl)benzamide] | 213 to 214 | –
Cc1ccc(C(=O)NC(NC(=S)Nc2ccccc2C)C(F)(F)F)cc1 (stereo not drawn) [Example 2, 4-methyl-N-{2,2,2-trifluoro-1-[(2-toluidinocarbothioyl)amino]ethyl}benzamide] | 210 to 211 | –
N#CN=C(Nc1cccnc1)NC(NC(=O)c1cccc(Cl)c1)C(F)(F)C(F)(F)F (stereo not drawn) [Example 122, 3-chloro-N-(1-{[(cyanoimino)(3-pyridinylamino)methyl]amino}-2,2,3,3,3-pentafluoropropyl)benzamide] | 183 to 185 | –
N#CN=C(Nc1cccc(F)c1)NC(NC(=O)c1ccc(Cl)cc1)c1ccsc1 (stereo not drawn) [Example 56, 4-chloro-N-[{[(cyanoimino)(3-fluoroanilino)methyl]amino}(3-thienyl)methyl]benzamide] | 166 to 168 | –
Cc1ccc(C(=O)N[C@@H](COC(C)(C)C)NC(=S)Nc2cccc([N+](=O)[O-])c2)cc1 [Example 31, N-((1R)-2-(tert-butoxy)-1-{[(3-nitroanilino)carbothioyl]amino}ethyl)-4-methylbenzamide] | 169 to 171 | –
CCCC(Cl)(Cl)C(NC(=O)c1ccc(Cl)cc1)NC(=C[N+](=O)[O-])Nc1cccnc1 (stereo not drawn) [Example 151, 4-chloro-N-(2,2-dichloro-1-{[2-nitro-1-(3-pyridinylamino)ethenyl]amino}pentyl)benzamide] | 185 to 186 | –
CC(C)(C)C(NC(=O)c1ccc(Cl)cc1)NC(=NC#N)NCc1cccnc1 (stereo not drawn) [Example 80, 4-chloro-N-[1-({(cyanoimino)[(3-pyridinylmethyl)amino]methyl}amino)-2,2-dimethylpropyl]benzamide] | 188 to 189 | –
N#CN=C(Nc1cccnc1)NC(NC(=O)c1ccc(Cl)cc1)C1CC1 (stereo not drawn) [Example 54, 4-chloro-N-[{[(cyanoimino)(3-pyridinylamino)methyl]amino}(cyclopropyl)methyl]benzamide] | 137 to 139 | –
CC(C)(C)C(NC(=O)c1ccc(Cl)cc1)NC(=NC#N)NCc1ccncc1 (stereo not drawn) [Example 81, 4-chloro-N-[1-({(cyanoimino)[(4-pyridinylmethyl)amino]methyl}amino)-2,2-dimethylpropyl]benzamide] | 189 to 191 | –
CC(Cl)(Cl)C(NC(=O)c1cccnc1)NC(=NC#N)Nc1ccc(Cl)nc1 (stereo not drawn) [Example 193, N-(2,2-dichloro-1-{[[(6-chloro-3-pyridinyl)amino](cyanoimino)methyl]amino}propyl)nicotinamide] | 212 to 213 | –
CC(Cl)(Cl)C(NC(=O)c1cccc(Cl)c1)NC(=N[N+](=O)[O-])Nc1cccnc1 (stereo not drawn) [Example 138, 3-chloro-N-(2,2-dichloro-1-{[(nitroimino)(3-pyridinylamino)methyl]amino}propyl)benzamide] | 160 to 161 | –
CN(C(=NC#N)Nc1cccnc1)C(NC(=O)c1ccc(Cl)cc1)C(C)(C)C (stereo not drawn) [Example 111, 4-chloro-N-{1-[[(cyanoimino)(3-pyridinylamino)methyl](methyl)amino]-2,2-dimethylpropyl}benzamide] | 127 to 129 | –
CC(C)(C)C(NC(=O)c1ccc(F)cc1)NC(=NC#N)Nc1cccnc1 (stereo not drawn) [Example 107, N-(1-{[(cyanoimino)(3-pyridinylamino)methyl]amino}-2,2-dimethylpropyl)-4-fluorobenzamide] | 195 to 196 | –
O=C(NC(NC(=S)Nc1cccnc1)C(Cl)(Cl)Cl)c1ccc(I)cc1 (stereo not drawn) [Example 148, 4-iodo-N-(2,2,2-trichloro-1-{[(3-pyridinylamino)carbothioyl]amino}ethyl)benzamide] | – | Index [1]: 0.082; EC50 ([1]; Sus scrofa): 1100 nM; Emax ([1]; Sus scrofa, maximal efficacy relative to P1075, field stimulation 0.05 Hz, 0.5 ms, 20 volts): 78%; EC50 ([2]; Cavia porcellus): 96 nM; Emax ([2]; Cavia porcellus, maximal steady-state hyperpolarization, normalized to response with 10 μM P1075 (100%)): 61%
CC1=C(CC(NC(=O)c2ccc(Cl)cc2)NC(=NC#N)Nc2cccnc2)C(C)(C)CCC1 (single isomer, unassigned; (-)) [Example 89, (−) 4-chloro-N-[1-{[(cyanoimino)(3-pyridinylamino)methyl]amino}-2-(2,6,6-trimethyl-1-cyclohexen-1-yl)ethyl]benzamide] | – | Index [1]: 0.120; EC50 [1]: 3400 nM; Efficacy (% P1075) ([1]; maximal efficacy relative to P1075, field stimulation 0.05 Hz, 0.5 ms, 20 volts): 41 % P1075; EC50 [2]: 100 nM; Maximal Response (% P1075) ([2]; maximal steady-state hyperpolarization, normalized to response with 10 μM P1075 (100%)): 88 % P1075

Further lines, with some results ahead:

melting point [°C] | SMILES | further results
180 to 182 | CC(C)(C)C(NC(=O)c1ccc(Cl)cc1)NC(=NC#N)NCc1ccccc1Cl (stereo not drawn) [Example 77, 4-chloro-N-(1-{[[(2-chlorobenzyl)amino](cyanoimino)methyl]amino}-2,2-dimethylpropyl)benzamide] | –
196 to 198 | CC(C)(C)C(NC(=O)c1ccc(Cl)cc1)NC(=NC#N)Nc1cc(F)ccc1F (stereo not drawn) [Example 73, 4-chloro-N-(1-{[(cyanoimino)(2,5-difluoroanilino)methyl]amino}-2,2-dimethylpropyl)benzamide] | –
189 to 190 | COc1ccc(NC(=NC#N)NC(NC(=O)c2cccc(Cl)c2)C(C)(Cl)Cl)cn1 (stereo not drawn) [Example 182, 3-chloro-N-[2,2-dichloro-1-({(cyanoimino)[(6-methoxy-3-pyridinyl)amino]methyl}amino)propyl]benzamide] | –
211 to 213 | CC(C)(C)C(NC(=O)c1ccc(Cl)cc1)NC(=NC#N)Nc1c(F)cccc1F (stereo not drawn) [Example 74, 4-chloro-N-(1-{[(cyanoimino)(2,6-difluoroanilino)methyl]amino}-2,2-dimethylpropyl)benzamide] | –
158 to 160 | CC(C)(C)C(NC(=O)c1ccc(Cl)cc1)NC(=NC#N)Nc1cccc(Cl)c1 (stereo not drawn) [Example 75, 4-chloro-N-(1-{[(cyanoimino)(3-chloroanilino)methyl]amino}-2,2-dimethylpropyl)benzamide] | –
192 to 193 | CCCC(Cl)(Cl)C(NC(=O)c1ccc(Cl)cc1)NC(=NC#N)Nc1cccnc1 (stereo not drawn) [Example 115, 4-chloro-N-(2,2-dichloro-1-{[(cyanoimino)(3-pyridinylamino)methyl]amino}pentyl)benzamide] | –
184 to 186 | CC(C)(C)C(NC(=O)c1ccc(Cl)cc1)NC(=NC#N)Nc1cccc(C(F)(F)F)c1 (stereo not drawn) [Example 71, 4-chloro-N-[1-({(cyanoimino)[3-(trifluoromethyl)anilino]methyl}amino)-2,2-dimethylpropyl]benzamide] | –
173 to 175 | CC(C)(C)C(NC(=O)c1ccc(Cl)cc1)NC(=NC#N)NCc1ccc(Cl)cc1 (stereo not drawn) [Example 79, 4-chloro-N-(1-{[[(4-chlorobenzyl)amino](cyanoimino)methyl]amino}-2,2-dimethylpropyl)benzamide] | –
185 to 186 | COc1ccccc1NC(=NC#N)NC(NC(=O)c1ccc(Cl)cc1)C(C)(Cl)Cl (stereo not drawn) [Example 181, 4-chloro-N-(2,2-dichloro-1-{[(cyanoimino)(2-methoxyanilino)methyl]amino}propyl)benzamide] | –
